Where “and” joins values, the source holds several entries; their conditions need not be identical. Equal entries are not always repeated. Where two headings read alike, the source gives them in different places.
How the values were obtained:
human recombinant MAO-A = target: T1, human recombinant MAO-A (Homo sapiens, UniProt P21397); type: biochemical
T1 construct: purchased Sigma-Aldrich M7316; host or cells: baculovirus-infected BTI-TN-5B1-4 insect cells (microsomes)
T1 sequence (P21397 1-527): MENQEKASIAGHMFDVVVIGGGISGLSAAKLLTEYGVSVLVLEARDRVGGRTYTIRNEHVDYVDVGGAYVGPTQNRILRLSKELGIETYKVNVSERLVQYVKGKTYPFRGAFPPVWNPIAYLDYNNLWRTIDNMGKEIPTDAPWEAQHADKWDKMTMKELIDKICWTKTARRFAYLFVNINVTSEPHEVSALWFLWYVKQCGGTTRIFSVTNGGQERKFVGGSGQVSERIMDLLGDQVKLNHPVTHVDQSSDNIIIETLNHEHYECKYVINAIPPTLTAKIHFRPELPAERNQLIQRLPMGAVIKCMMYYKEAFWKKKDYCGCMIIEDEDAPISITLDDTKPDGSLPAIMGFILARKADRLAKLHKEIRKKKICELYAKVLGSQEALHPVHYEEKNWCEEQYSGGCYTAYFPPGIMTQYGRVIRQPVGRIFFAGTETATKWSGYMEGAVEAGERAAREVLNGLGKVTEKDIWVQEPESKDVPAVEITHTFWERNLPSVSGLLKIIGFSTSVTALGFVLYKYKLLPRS

[1] = Chemical stability in phosphate buffer; type: physicochemical; conditions: chemical stability in 10 mM phosphate buffer at pH 7.4; 60 days at room temperature
Description: The purity and solubility of the compounds was determined by an analytical HPLC-UV method using an LC-MS instrument (Applied Biosystems API 2000 LC/ESI-MS; HPLC Agilent 1100 binary pump system) coupled with a diode array detector (DAD) with an UV absorption in the range from 220 to 400 nm. Mass spectra were recorded on an API 2000 mass spectrometer equipped with an electrospray ion source (ESI) by using triple ion quadrupole (TIC) with an alternating full scan detection in positive (+Q) and/or negative (-Q) mode. As mobile phases for the different analytical LC methods were used methanol (Sigma-Aldrich, Chromasolv LC-MS grade), ammonium acetate (2.0 mM) and water Purelab flex.
500 µL of a 10 mM compound stock solution in DMSO, ACN or MeOH was added to a 2.0 mL HPLC glass vial containing 500 µL phosphate buffer (10 mM, pH 7.4) and sonicated for 60 sec. The sample was shaken at 37 °C for 2 hours and then left for 60 days at room temperature under light exposure. The chemical stability of compounds was checked by UV-visible spectroscopy (Figure S1).

hMAO-B [2] = target: T2, hMAO-B (Homo sapiens, UniProt P27338); conditions: at IC80: NTZ compounds 1.0 nM, selegiline 30 nM, safinamide 50 nM; p-tyramine raised to 1.0 mM after 22 min
T2 sequence (P27338 1-520): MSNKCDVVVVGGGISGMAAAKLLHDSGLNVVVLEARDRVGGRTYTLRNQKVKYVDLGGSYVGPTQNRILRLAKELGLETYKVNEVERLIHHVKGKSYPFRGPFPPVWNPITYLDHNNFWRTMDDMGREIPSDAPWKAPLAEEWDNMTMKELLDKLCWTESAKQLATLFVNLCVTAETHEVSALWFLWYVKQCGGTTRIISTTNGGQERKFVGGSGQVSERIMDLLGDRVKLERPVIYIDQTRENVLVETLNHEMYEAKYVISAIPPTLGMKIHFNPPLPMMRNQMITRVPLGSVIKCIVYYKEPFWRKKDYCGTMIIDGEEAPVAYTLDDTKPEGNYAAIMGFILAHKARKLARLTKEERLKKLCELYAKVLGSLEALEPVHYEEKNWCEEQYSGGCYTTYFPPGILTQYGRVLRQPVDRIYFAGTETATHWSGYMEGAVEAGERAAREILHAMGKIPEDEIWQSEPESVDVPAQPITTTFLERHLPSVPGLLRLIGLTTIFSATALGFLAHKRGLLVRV
Description: (§1) final concentration) MAO-B inhibitors were used as references. Indazole-based compounds (1.0 nM final
(§2) concentration) as well as reference inhibitors were studied at their IC80 values without pre-incubation of
(§3) the hMAO-B enzyme/inhibitor mixtures. Control experiments without inhibitors were run for each
(§4) compound. The enzyme reaction was started by adding 10 µM of the substrate p-tyramine and the
enzymatic activity of the tested compounds was measured for 22 min. Then, the substrate concentration
fluorescence measurements for 5 h.
The measurements were conducted
(§5) in duplicate using the same hMAO-B assay conditions as described for the determination of IC50 values.

[3] = Octanol-water distribution coefficient (logD); conditions: for logD7.4: measured, pH 7.4 in 60 mM phosphate buffer at rt
[4] = Solubility studies (HPLC-UV/ESI-MS; kinetic solubility); type: physicochemical; conditions: measured, solubility in mol/L at pH 7.4 in 60 mM phosphate buffer or pure water at rt; for solubility: 60 mM phosphate buffer or pure water, pH 7.4, aqueous buffer, read-out: logS7.4
[5] = as above; type: physicochemical; conditions: thermodynamic from solid
Description: Solid […]
samples of compounds (2–4 mg) were weighed and serial diluted in 1.0 mL either of water (Purelab flex) or water-methanol (1:1). A precisely weighed sample of the respective compound in methanol (1.0 ± 0.05 mg/mL) was used as a reference. A blank solution without detectable analyte was used for instrument calibration for each experiment. The suspensions were mixed on a vortex for 5 min, sonicated for 1 h, and then shaken over night at rt. After that, the samples were left for 1 h at rt and then filtered through a 0.45 µm filter. Aliquots (10 µL) of each sample were injected into the HPLC/ESI-MS system (Applied
(1 picture or pasted object on this page, not shown here)
Biosystems API 2000 ESI-MS, HPLC Agilent 1100 binary pump system) equipped with a Phenomenex Luna C18 reverse phase column and subsequently measured by chromatographic procedure (DAD detection) with mass conformation (MS scan in positive and negative mode). The mass scan method was adapted for each tested compound depending on its limit of detection (LOD) and physicochemical properties (Table S1, Figure S2). The solubility of the compounds was calculated by Analyst software v.
1.5.1 (AB Sciex Pte. Ltd.) using one point calibration after subtraction the absorbance of the blank solution from the total analyte peak area measured for each sample in the experiments. To verify the results, an equimolar mixture (each in a concentration equal to 1.0 mg/mL) of the compounds in methanol was prepared and measured under the same conditions as described above (see Figure 4A). All experiments were performed in triplicate with at least three analytical runs for each sample.
The solubility data for tested compounds, obtained from the different analytical techniques, are […]
Table S1. Solubility data for selected compounds.
Compd. Methoda Solubility in 50% methanolb Solubility in waterb […]
a Method of detection: HPLC-UV method 1 (DAD), HPLC/ESI-MS method 2 (+Q/–Q scan: +MI+H+/– MI–H–). b The values are the mean ± SD (n ≥ 3).

hMAO-B [6] = target: T2, hMAO-B; test: MAO-B kinetic experiments (Lineweaver-Burk); type: biochemical; parameters: purchased Sigma-Aldrich M7441; host or cells: baculovirus-infected BTI-TN-5B1-4 insect cells (microsomes); conditions: 0.5 and 1.0 nM inhibitor, varied p-tyramine
Description: as §1, §2, §3, §4
enzymatic activity of the tested compounds was measured for 22 min.
The catalytic rates of hMAO-B were measured at different
The measurements were conducted
as §5

[7] = PAMPA-BBB permeability assay; conditions: for PAMPA-BBB −logPe: 4 h under stirring, Prisma HT buffer; for CNS+/– Prediction: from PAMPA-BBB permeability, limit for BBB permeation Pe > 4.0 × 10^−6 cm/s
Description: (§6) Measurements were performed at room temperature with incubation for 4 h under stirring.
(§7) Parallel Artificial Membrane Permeability Assay (PAMPA)
(§8) Determination of blood-brain barrier (BBB) permeability was performed using the PAMPA Explorer kit
(§9) (Pion, Inc.). Stock solutions of tested and standard compounds were prepared in DMSO (10 mM and 50
(§10) The corresponding stock solutions were diluted to a final
(§11) concentration of 10 µM and 50 µM (5.0 µL/well, 1% v/v final DMSO concentration) with pH 7.4 Prisma
(§12) HT buffer solution in deionized water (Pion) using a deep-well plate. The first row of this plate was filled
(§13) with DMSO. For the preparation of pH-dependent PAMPA experiments, the pH of Prisma solution was
(§14) adjusted to pH 3.0 or 6.2 by adding aliquots of 0.5 M NaOH. The resulting solution (200 µL) was added
(§15) to each well of the donor plate (n = 6).
(§16) the acceptor plate was coated with 5 µL/well of the GIT-0 lipid (Pion) formulation and placed on the top
(§17) of the donor plate to form a “sandwich” plate. Then, 200 µL of brain sink buffer (BSB, Pion) was added
(§18) to each well of the acceptor plate. The “sandwich” plate was incubated in a Good-Box (Pion) at 37 °C for
(§19) 4 h with stirring at 60 (ABL t.u.). After that, 150 µL/well of each well of the “sandwich” plates were
(§20) transferred into the corresponding UV read acceptor and donor plates. A blank UV read 96-well plate with
(§21) 150 µL/well of each buffer solution was prepared. An Epoch microplate reader was used to obtain the
(§22) UV-vis spectra (250–500 nm) of the solutions in the blank, acceptor, and donor plates. The Pe and –logPe
(§23) values for each compound were processed using the PAMPA Explorer software v.3.8 (Pion).

[8] = PAMPA-BBB standard drugs; cited from earlier work
[9] = PAMPA
Description: as §6, §7, §8, §9, §10, §11, §12, §13, §14, §15, §16, §17, §18, §19, §20, §21, §22, §23

[10] = pure water (Purelab flex), water, method 1: HPLC-UV (DAD), read-out: Solubility in water Sw
[11] = pure water (Purelab flex), water, method 1: HPLC-UV (DAD), read-out: Solubility in water logSw
[12] = pure water (Purelab flex), water, method 2: HPLC/ESI-MS, read-out: Solubility in water logSw
[13] = pure water (Purelab flex), water, pure water, mean ± SD (n ≥ 3), read-out: Solubility in water
[14] = water-methanol (1:1), aqueous with cosolvent or surfactant or cyclodextrin, mean ± SD (n ≥ 3), read-out: Solubility in 50% methanol
[15] = water-methanol (1:1), aqueous with cosolvent or surfactant or cyclodextrin, method 1: HPLC-UV (DAD), read-out: Solubility in 50% methanol S
[16] = water-methanol (1:1), aqueous with cosolvent or surfactant or cyclodextrin, method 1: HPLC-UV (DAD), read-out: Solubility in 50% methanol logS
[17] = water-methanol (1:1), aqueous with cosolvent or surfactant or cyclodextrin, method 2: HPLC/ESI-MS, read-out: Solubility in 50% methanol logS
[18] = pure water (Purelab flex), water, method 2: HPLC/ESI-MS, read-out: Solubility in water Sw
[19] = water-methanol (1:1), aqueous with cosolvent or surfactant or cyclodextrin, method 2: HPLC/ESI-MS, read-out: Solubility in 50% methanol S
[20] = PAMPA-BBB validation with standard drugs

SMILES	Stability [1]	mode of interaction with hMAO-B (reversible or irreversible) (hMAO-B [2])	logS7.4 [4]	solubility [5, 10]	solubility [5, 11]	solubility [5, 12]	solubility [5, 13]	solubility [5, 14]	solubility [5, 15]	solubility [5, 16]	solubility [5, 17]	PAMPA-BBB −logPe [7]	Papp at 4 h, 10 µM ([7]; PAMPA, pH 7.4)	Reported –logPe [8]	further results
O=C(Nc1ccc(Cl)c(Cl)c1)c1ccc2[nH]ncc2c1 [NTZ-1006]	Stable	reversible inhibitors of hMAO-B													IC50 (human recombinant MAO-A): > 10 µM
O=C(Nc1ccc(F)c(Cl)c1)c1ccc2[nH]ncc2c1 [NTZ-1032]	Stable														
O=C(Nc1ccc(F)c(F)c1)c1ccc2[nH]ncc2c1 [NTZ-1034]	Stable		−4.22												logD7.4 [3]: 2.04
Cn1ncc2cc(C(=O)Nc3ccc(Cl)c(Cl)c3)ccc21 [NTZ-1091]	Stable	reversible inhibitors of hMAO-B	−4.75	0.75 µg/mL and 2.36 µM	2.34 µM	17.8 µM	5.62 µg/mL and 17.6 µM	156 µg/mL and 490 µM	105 µg/mL and 300 µM	331 µM	447 µM	3.91	118 ± 6.4 ×10⁻⁶ cm/s		type of hMAO-B inhibition (Lineweaver–Burk) (hMAO-B [6]): linear and intersected at the Y-axis
Cn1ncc2cc(C(=O)Nc3ccc(F)c(Cl)c3)ccc21 [NTZ-1441]	Stable		−3.87	10.6 µg/mL and 34.9 µM	34.7 µM	135 µM	42.1 µg/mL and 136 µM	609 µg/mL and 2040 µM	663 µg/mL and 2190 µM	2190 µM	2040 µM	3.84	144 ± 3.4 ×10⁻⁶ cm/s		solubility [5, 18]: 136 ± 5.16 µM; solubility [5, 19]: 609 ± 48.7 µg/mL; logD7.4 [3]: 2.19; logD ([3]; octanol/water, pH 7.4): < 3; solubility [4]: > 100 µM
Cn1ncc2cc(C(=O)Nc3ccc(F)c(F)c3)ccc21 [NTZ-1471]	Stable		−3.67	10.4 µg/mL and 36.3 µM	38.9 µM	214 µM	61.6 µg/mL and 215 µM	610 µg/mL and 2120 µM	631 µg/mL and 2180 µM	2190 µM	2140 µM	3.83	148 ± 2.4 ×10⁻⁶ cm/s		solubility [5, 18]: 214 ± 33.3 µM; solubility [5, 19]: 610 ± 26.2 µg/mL; solubility [4]: > 100 µM; CNS+/– Prediction [7]: CNS+
CC(=O)[C@H]1CC[C@H]2[C@@H]3CCC4=CC(=O)CC[C@]4(C)[C@H]3CC[C@]12C [Progesterone, reference compound]														3.7 ± 0.25	Papp at 4 h ([7]; PAMPA, pH 7.4): 55.2 ± 0.02 ×10⁻⁶ cm/s; Experiment –logPe [7, 20]: 4.26 ± 0.00; CNS+/– Prediction [7]: CNS+
CC(C)NCC(O)COc1cccc2ccccc12.Cl (stereo not shown) [Propranolol HCl, reference compound]														4.1 ± 0.25	CNS+/– Prediction [9]: CNS+; Experiment Pe [7, 20]: 98.7 ± 9.96 10-6 cm/s; Experiment –logPe [7, 20]: 4.01 ± 0.04
C[C@H](NCc1ccc(OCc2cccc(F)c2)cc1)C(N)=O [Safinamide, reference compound]		reversible													
Cn1c(=O)c2[nH]cnc2n(C)c1=O [Theophylline]														> 6.0 ± 0.25	
